Assays:
[1] = biological target: T1, DAPK1 (Homo sapiens, UniProt P53355); test: In vitro kinase inhibition assay (HotSpot, Reaction Biology); assay type: biochemical; details: single dose of 10 µM; read-out: Percent Inhibition, DAPK1
T1 construct: purchased Reaction Biology Corp
Method: (§1) The in vitro kinase inhibition assay was carried out by Reaction Biology Corp. (Reaction Biology Corp., Chester, PA, USA) Kinase HotSpot^SM service (http://www.reactionbiology.com, accessed on 15 January 2021), following the previously reported methods. (For details, see Supplementary Material).
(§2) As mentioned in the introduction, to get insights about the kinase inhibition profile of the hybrid small molecule 5a, an in vitro screening over a panel of 14 cancer-related kinases was carried out. Accordingly, 10 µM concentrations of compound 5a were used in a kinase inhibition assay over various kinase groups and families in the presence of 10 µM ATP using HotSpotSM technology. To get a comprehensive picture of the inhibitory activities of the tested compound (5a) against the kinase panel, data are illustrated in Table 1. […] Compound 5a was also able to suppress the kinase activity of the epidermal growth factor receptor (EGFR), platelet-derived growth factor receptor-alpha (PDGFRα), and cyclin-dependent kinase 2 (CDK2) with modest inhibition values of 26.99 ± 0.9, 24.0 ± 0.4, and 20.1 ± 0.1%, respectively. […] Several studies have confirmed direct relationships between the most affected kinases (FMS, LCK, LYN, and DAPK1) and different human disorders including cancer.
(§3) 5. Protocol of Kinase assay
(§4) Kinases inhibitory activities were assessed by the HotSpot assay platform, which contained specific kinase/substrate pairs along with required cofactors. Base reaction buffer: 20 mM Hepes (pH 7.5), 10 mM MgCl2, 1 mM EGTA, 0.02% Brij35, 0.02 mg/ml BSA, 0.1 mM Na3VO4, 2 mM DTT, 1% DMSO. Testing compounds were dissolved in 100% DMSO to specific concentration. The serial dilution was conducted by Integra Viaflo Assist in DMSO. The reaction mixture containing the examined compound and 33P-ATP was incubated at room temperature for 2h and radioactivity was detected by filter-binding method. Kinase activity data were expressed as the percent remaining kinase activity in test samples compared to vehicle (dimethyl sulfoxide) reactions. IC50 values and curve fits were obtained using Prism (GraphPad Software).
(§5) 6. Biology raw data for IC50 determination
(§6) Paper ID Cpd ID NSC Number

[2] = biological target: T2, LCK (Homo sapiens, UniProt P06239); test: as above; assay type: biochemical
T2 construct: purchased Reaction Biology Corp
Method: as §1, §2, §3, §4, §5, §6

[3] = biological target: T3, LYN (Homo sapiens, UniProt P07948); test: as above; assay type: biochemical
T3 construct: purchased Reaction Biology Corp
Method: as §1, §2, §3, §4, §5, §6

[4] = tested on: RPMI-8226; test: NCI growth inhibition (SRB) assay; assay type: cell-based; details: Homo sapiens, RPMI-8226, Leukemia, single dose 10 µM, 48 h, read-out: Percent Growth Inhibition (GI)
Method: (§7) The antitumor assay was performed according to the protocol of the Drug Evaluation Branch, NCI, Bethesda. A 48 h drug exposure protocol was adopted, and sulforhodamine B (SRB) assay was utilized to assess the cell growth and viability, as reported earlier.
(§8) The inhibition results of tumor cell growth by the newly synthesized compounds (5a–5g) are described in Table 4. The reported measurements have been performed at the NIH National Cancer Institute, USA by a standardized assay including a panel of 60 different tumor cell lines (Supplementary Data). The following cancer cell types were included in these assays: Leukemia, non-small cell lung cancer, colon cancer, CNS cancer, melanoma, ovarian cancer, renal cancer, prostate, and breast cancer. […] Additionally, the 3,4-dimethoxy substituted compound (5b) also suffered poor activity against the cancer cell lines.

[5] = tested on: RXF 393; test: NCI growth inhibition (SRB) assay; assay type: cell-based; details: RXF 393, Renal Cancer, single dose 10 µM
Method: as §7, §8

[6] = tested on: KM12; test: NCI growth inhibition (SRB) assay; assay type: cell-based; details: Homo sapiens, KM12, Colon Cancer, single dose 10 µM, 48 h, read-out: Percent Growth Inhibition (GI)
Method: as §7, §8

[7] = tested on: NCI-H522; test: NCI growth inhibition (SRB) assay; assay type: cell-based; details: Homo sapiens, NCI-H522, Non-Small Cell Lung Cancer, single dose 10 µM, 48 h, read-out: Percent Growth Inhibition (GI)
Method: as §7, §8

[8] = tested on: MCF7; test: NCI growth inhibition (SRB) assay; assay type: cell-based; details: Homo sapiens, MCF7, Breast Cancer, single dose 10 µM, 48 h, read-out: Percent Growth Inhibition (GI)
Method: as §7, §8

[9] = tested on: HOP-92; test: NCI growth inhibition (SRB) assay; assay type: cell-based; details: Homo sapiens, HOP-92, Non-Small Cell Lung Cancer, single dose 10 µM, 48 h, read-out: Percent Growth Inhibition (GI)
Method: as §7, §8

[10] = tested on: ACHN; test: NCI growth inhibition (SRB) assay; assay type: cell-based; details: Homo sapiens, Renal Cancer, single dose 10 µM, 48 h, read-out: Percent Growth Inhibition (GI)
Method: as §7, §8

[11] = tested on: MOLT-4; test: NCI growth inhibition (SRB) assay; assay type: cell-based; details: Homo sapiens, MOLT-4, Leukemia, single dose 10 µM, 48 h, read-out: Percent Growth Inhibition (GI)
Method: as §7, §8

[12] = tested on: IGROV1; test: NCI growth inhibition (SRB) assay; assay type: cell-based; details: Homo sapiens, IGROV-1, IGROV1, Ovarian Cancer, single dose 10 µM, 48 h, read-out: Percent Growth Inhibition (GI)
Method: as §7, §8

[13] = tested on: 786-0; test: NCI growth inhibition (SRB) assay; assay type: cell-based; details: Homo sapiens, 786-0, Renal Cancer, single dose 10 µM, 48 h, read-out: Percent Growth Inhibition (GI)
Method: as §7, §8

[14] = tested on: K-562; test: NCI growth inhibition (SRB) assay; assay type: cell-based; details: Homo sapiens, K562, K-562, Leukemia, single dose 10 µM, 48 h, read-out: Percent Growth Inhibition (GI)
Method: as §7, §8

[15] = tested on: UO-31; test: NCI growth inhibition (SRB) assay; assay type: cell-based; details: Homo sapiens, UO-31, Renal Cancer, single dose 10 µM, 48 h, read-out: Percent Growth Inhibition (GI)
Method: as §7, §8

[16] = tested on: T-47D; test: NCI growth inhibition (SRB) assay; assay type: cell-based; details: Homo sapiens, T47D, Breast Cancer, single dose 10 µM, 48 h, read-out: Percent Growth Inhibition (GI)
Method: as §7, §8

[17] = tested on: A498; test: NCI growth inhibition (SRB) assay; assay type: cell-based; details: Homo sapiens, A498, Renal Cancer, single dose 10 µM, 48 h, read-out: Percent Growth Inhibition (GI)
Method: as §7, §8

[18] = tested on: CCRF-CEM; test: NCI growth inhibition (SRB) assay; assay type: cell-based; details: Homo sapiens, Leukemia, single dose 10 µM, 48 h, read-out: Percent Growth Inhibition (GI)
Method: as §7, §8

[19] = tested on: SR; test: NCI growth inhibition (SRB) assay; assay type: cell-based; details: 48 h, Leukemia, single dose 10 µM
Method: as §7, §8

[20] = 10-dose, 3-fold serial dilution starting at 100 μM

T2 sequence (P06239 whole entry): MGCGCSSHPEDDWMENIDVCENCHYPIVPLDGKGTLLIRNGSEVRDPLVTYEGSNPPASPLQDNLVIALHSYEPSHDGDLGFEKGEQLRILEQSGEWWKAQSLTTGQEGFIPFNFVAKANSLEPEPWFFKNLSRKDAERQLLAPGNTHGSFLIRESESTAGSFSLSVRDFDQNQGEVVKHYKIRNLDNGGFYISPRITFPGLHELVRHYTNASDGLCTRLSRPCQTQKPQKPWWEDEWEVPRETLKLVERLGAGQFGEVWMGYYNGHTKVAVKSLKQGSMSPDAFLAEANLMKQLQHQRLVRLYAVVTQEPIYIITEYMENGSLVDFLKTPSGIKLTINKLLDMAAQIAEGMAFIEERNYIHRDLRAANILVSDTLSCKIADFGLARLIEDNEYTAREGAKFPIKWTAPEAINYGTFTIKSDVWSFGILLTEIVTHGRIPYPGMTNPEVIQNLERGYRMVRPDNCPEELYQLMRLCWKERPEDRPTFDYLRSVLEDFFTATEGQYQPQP
T3 sequence (P07948 whole entry): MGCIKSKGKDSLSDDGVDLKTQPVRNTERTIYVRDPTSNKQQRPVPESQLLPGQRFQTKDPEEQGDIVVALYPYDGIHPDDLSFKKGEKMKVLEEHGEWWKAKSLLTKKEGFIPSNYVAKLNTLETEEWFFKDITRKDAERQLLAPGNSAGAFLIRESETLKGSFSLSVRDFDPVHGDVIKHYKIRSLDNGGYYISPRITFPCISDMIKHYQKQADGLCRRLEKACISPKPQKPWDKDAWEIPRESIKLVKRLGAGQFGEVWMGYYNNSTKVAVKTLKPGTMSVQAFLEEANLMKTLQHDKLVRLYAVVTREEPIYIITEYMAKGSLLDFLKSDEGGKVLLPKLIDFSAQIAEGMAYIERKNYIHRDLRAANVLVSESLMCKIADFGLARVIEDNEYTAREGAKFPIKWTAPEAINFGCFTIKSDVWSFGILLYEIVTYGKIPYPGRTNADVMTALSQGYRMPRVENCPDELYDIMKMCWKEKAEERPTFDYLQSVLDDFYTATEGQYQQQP
T1 sequence (P53355 whole entry): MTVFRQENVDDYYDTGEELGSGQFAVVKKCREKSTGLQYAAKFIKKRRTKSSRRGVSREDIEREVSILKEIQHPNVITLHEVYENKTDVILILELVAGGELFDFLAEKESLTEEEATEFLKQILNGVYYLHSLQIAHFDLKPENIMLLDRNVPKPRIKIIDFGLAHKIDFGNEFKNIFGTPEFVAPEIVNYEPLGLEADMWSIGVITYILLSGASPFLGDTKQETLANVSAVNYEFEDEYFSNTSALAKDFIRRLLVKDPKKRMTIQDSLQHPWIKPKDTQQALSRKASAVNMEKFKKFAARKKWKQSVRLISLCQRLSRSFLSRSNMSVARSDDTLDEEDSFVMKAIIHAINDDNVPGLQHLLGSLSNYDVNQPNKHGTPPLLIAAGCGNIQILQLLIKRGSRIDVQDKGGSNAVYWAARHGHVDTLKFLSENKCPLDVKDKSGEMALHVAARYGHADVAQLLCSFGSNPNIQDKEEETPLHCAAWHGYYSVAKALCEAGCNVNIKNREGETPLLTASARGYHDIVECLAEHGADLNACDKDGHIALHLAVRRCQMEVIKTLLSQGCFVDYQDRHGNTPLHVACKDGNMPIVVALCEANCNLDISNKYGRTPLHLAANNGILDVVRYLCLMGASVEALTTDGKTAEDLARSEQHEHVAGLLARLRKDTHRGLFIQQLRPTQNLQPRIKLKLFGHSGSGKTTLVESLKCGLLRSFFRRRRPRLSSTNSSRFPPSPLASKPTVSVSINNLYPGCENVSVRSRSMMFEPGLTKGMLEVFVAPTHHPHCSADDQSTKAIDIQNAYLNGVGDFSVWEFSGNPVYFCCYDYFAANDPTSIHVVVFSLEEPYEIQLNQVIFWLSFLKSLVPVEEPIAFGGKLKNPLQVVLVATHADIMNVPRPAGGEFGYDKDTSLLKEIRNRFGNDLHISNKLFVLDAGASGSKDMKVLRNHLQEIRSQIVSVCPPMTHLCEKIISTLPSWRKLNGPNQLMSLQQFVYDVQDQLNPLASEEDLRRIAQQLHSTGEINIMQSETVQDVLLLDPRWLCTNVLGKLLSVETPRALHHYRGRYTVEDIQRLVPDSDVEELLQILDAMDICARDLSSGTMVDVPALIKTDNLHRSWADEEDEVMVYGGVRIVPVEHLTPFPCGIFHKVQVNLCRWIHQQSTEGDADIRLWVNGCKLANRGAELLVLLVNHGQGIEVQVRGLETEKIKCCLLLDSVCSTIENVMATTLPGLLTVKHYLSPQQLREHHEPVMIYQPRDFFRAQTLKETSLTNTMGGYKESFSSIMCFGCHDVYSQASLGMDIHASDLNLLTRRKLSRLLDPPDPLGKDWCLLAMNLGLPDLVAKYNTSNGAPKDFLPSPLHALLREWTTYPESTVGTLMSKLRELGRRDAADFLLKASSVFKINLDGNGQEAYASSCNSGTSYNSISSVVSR

SMILES: COc1ccc(Oc2nc(Nc3ccc(N4CCOCC4)cc3)ncc2NC(=O)c2cccc(SC)c2)cc1 [5g, N-(4-(4-Methoxyphenoxy)-2-((4-morpholinophenyl)amino)pyrimidin-5-yl)-3-(methylthio)benzamide]
- inhibition at 10 µM [1]: 54.6 ± 0.8%
- IC50 [2, 20]: 87.7 ± 8.3 nM
- fold more potent than imatinib over LCK ([2]; from IC50 values): ~2 fold
- inhibition at 10 µM ([2]; single dose of 10 µM, 10 µM ATP as printed, read-out: Percent Inhibition, LCK): 96.9 ± 0.3%
- IC50 [3, 20]: 169 ± 31 nM
- inhibition at 10 µM ([3]; single dose of 10 µM, 10 µM ATP as printed, read-out: Percent Inhibition, LYN): 96.4 ± 0.1%
- inhibition at 10 µM [4]: 20.5%
- inhibition at 10 µM ([5]; Homo sapiens, RXF 393, 48 h, read-out: Percent Growth Inhibition (GI)): 70%
- Percent Growth Inhibition (GI) ([5]; 48 h): 70.1%
- inhibition at 10 µM [6]: 20.2%
- inhibition at 10 µM [7]: 26.4%
- inhibition at 10 µM [8]: 21.5%
- inhibition at 10 µM [9]: 20.2%
- inhibition at 10 µM [10]: 21.4%
- inhibition at 10 µM [11]: 43.1%
- inhibition at 10 µM [12]: 33.9%
- inhibition at 10 µM [13]: 25%
- inhibition at 10 µM [14]: 29.1%
- inhibition at 10 µM [15]: 43.7%
- inhibition at 10 µM [16]: 28.2%
- inhibition at 10 µM [17]: 18.9%
- inhibition at 10 µM [18]: 13%
- inhibition at 10 µM ([19]; Homo sapiens, read-out: Percent Growth Inhibition (GI)): 60%
- Percent Growth Inhibition (GI) [19]: 60.5%
